Reference: patent US20210267953A1, “SUBSTITUTED OXAZOLIDINONES FOR THE TREATMENT OF MAMMALIAN INFECTIONS” (CADILA HEALTHCARE LIMITED, priority 2018, published 2021)
≈ marks a conversion by molar mass, not a printed value.

Tested on: Mycobacterium tuberculosis H37Rv
Test: Minimum Inhibitory Concentration (MIC) determination, MABA assay
Format: cell-based
Details: Microplate Alamar Blue Assay, M. tuberculosis H37Rv log phase culture in 7H-9 medium, 7 days at 37° C., lowest concentration that prevents colour change blue to pink, read-out: Mtb MIC

| SMILES | MIC |
| --- | --- |
| O=C1O[C@@H](Cn2ccnn2)CN1c1cc(F)c(N2CCC3(CC2)CS(=O)(=O)C3)c(F)c1 [Example 1, (R)-5-((1H-1,2,3-triazol-1-yl)methyl)-3-(4-(2,2-dioxido-2-thia-7-azaspiro[3.5]nonan-7-yl)-3,5-difluorophenyl)oxazolidin-2-one] | 1.25 µM (≈ 0.567 µg/mL) |
| O=C1O[C@@H](CNc2ccon2)CN1c1cc(F)c(N2CCC3(CC2)CS(=O)(=O)C3)c(F)c1 [Example 2, (S)-3-(4-(2,2-dioxido-2-thia-7-azaspiro[3.5]nonan-7-yl)-3,5-difluorophenyl)-5-((isoxazol-3-ylamino)methyl)oxazolidin-2-one] | 1.25 µM (≈ 0.586 µg/mL) |
| CC(=O)NC[C@H]1CN(c2cc(F)c(N3CCC4(CC3)CS(=O)(=O)C4)c(F)c2)C(=O)O1 [Example 3, (S)—N-((3-(4-(2,2-dioxido-2-thia-7-azaspiro[3.5]nonan-7-yl)-3,5-difluorophenyl)-2-oxooxazolidin-5-yl)methyl)acetamide] | 1.25 µM (≈ 0.554 µg/mL) |
| COC(=O)NC[C@H]1CN(c2cc(F)c(N3CCC4(CC3)CS(=O)(=O)C4)c(F)c2)C(=O)O1 [Example 4, (S)-methyl ((3-(4-(2,2-dioxido-2-thia-7-azaspiro[3.5]nonan-7-yl)-3,5-difluorophenyl)-2-oxooxazolidin-5-yl)methyl)carbamate] | 1.25 µM (≈ 0.574 µg/mL) |
| CC(=O)NC[C@H]1CN(c2ccc(N3CCC4(CC3)CS(=O)(=O)C4)c(F)c2)C(=O)O1 [Example 5, (S)—N-((3-(4-(2,2-dioxido-2-thia-7-azaspiro[3.5]nonan-7-yl)-3-fluorophenyl)-2-oxooxazolidin-5-yl)methyl)acetamide] | 1.25 µM (≈ 0.532 µg/mL) |
| CC(=O)NC[C@H]1CN(c2cc(F)c(N3CCC4(CC3)COC4)c(F)c2)C(=O)O1 [Example 6, (S)—N-((3-(3,5-difluoro-4-(2-oxa-7-azaspiro[3.5]nonan-7-yl)phenyl)-2-oxooxazolidin-5-yl)methyl)acetamide] | 1.25 to 2.5 µM (≈ 0.494 to 0.989 µg/mL) |
| CC(=O)NC[C@H]1CN(c2ccc(N3CCC4(CC3)COC4)c(F)c2)C(=O)O1 [Example 7, (S)—N-((3-(3-fluoro-4-(2-oxa-7-azaspiro[3.5]nonan-7-yl)phenyl)-2-oxooxazolidin-5-yl)methyl)acetamide] | 2.5 µM (≈ 0.944 µg/mL) |
| CC(=O)NC[C@H]1CN(c2cc(F)c(N3CCC(C4COC4)CC3)c(F)c2)C(=O)O1 [Example 8, (S)—N-((3-(3,5-difluoro-4-(4-(oxetan-3-yl)piperidin-1-yl)phenyl)-2-oxooxazolidin-5-yl)methyl)acetamide] | 2.5 µM (≈ 1.02 µg/mL) |
| CC(=O)NC[C@H]1CN(c2cc(F)c(N3CCC(C4CS(=O)(=O)C4)CC3)c(F)c2)C(=O)O1 [Example 9, (S)—N-((3-(4-(4-(1,1-dioxidothietan-3-yl)piperidin-1-yl)-3,5-difluorophenyl)-2-oxooxazolidin-5-yl)methyl)acetamide] | 1.25 µM (≈ 0.572 µg/mL) |
| CC(=O)NC[C@H]1CN(c2ccc(N3CCC(C4CS(=O)(=O)C4)CC3)c(F)c2)C(=O)O1 [Example 10, (S)—N-((3-(4-(4-(1,1-dioxidothietan-3-yl)piperidin-1-yl)-3-fluorophenyl)-2-oxooxazolidin-5-yl)methyl)acetamide] | 2.5 µM (≈ 1.1 µg/mL) |
